Assay results reported in patent publication US6831075B2, “Heterocyclic substituted pyrazolones” (Cephalon, Inc., priority 1999, dated 2004).

What was measured:
Assay type in all cases: biochemical
[1] = molecular target: T1, recombinant human baculovirus-expressed VEGFR1 cytoplasmic domain (Homo sapiens, UniProt P17948); assay: VEGFR1 kinase inhibition assay (ELISA-based, time-resolved fluorescence); conditions: 1 uM compound; 30 μM ATP
T1 construct: recombinant human baculovirus-expressed VEGFR1 cytoplasmic domain; host or cells: baculovirus expression system
T1 sequence (P17948 781-1338 limits assumed): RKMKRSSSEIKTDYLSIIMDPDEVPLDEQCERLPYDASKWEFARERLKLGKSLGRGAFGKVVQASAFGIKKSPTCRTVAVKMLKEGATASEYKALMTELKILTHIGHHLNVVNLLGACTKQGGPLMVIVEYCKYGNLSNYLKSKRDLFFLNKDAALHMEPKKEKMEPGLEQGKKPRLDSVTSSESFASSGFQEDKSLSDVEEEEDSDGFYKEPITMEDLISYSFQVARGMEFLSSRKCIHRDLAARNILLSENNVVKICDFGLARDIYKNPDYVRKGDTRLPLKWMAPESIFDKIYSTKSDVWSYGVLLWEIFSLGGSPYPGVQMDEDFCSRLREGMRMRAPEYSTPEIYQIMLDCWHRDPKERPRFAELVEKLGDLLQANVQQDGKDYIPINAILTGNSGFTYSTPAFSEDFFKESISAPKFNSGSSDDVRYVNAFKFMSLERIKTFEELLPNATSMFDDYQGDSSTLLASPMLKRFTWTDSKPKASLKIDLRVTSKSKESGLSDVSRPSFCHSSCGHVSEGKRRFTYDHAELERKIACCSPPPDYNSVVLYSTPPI
Procedure: Inhibition of Vascular Endothelial Growth Factor Receptor-1 Kinase Activity
The VEGFR1 kinase activity assay utilizes an ELISA-based format in a 96-well FluoroNUNC Maxisorp plate with a time-resolved fluorescence readout. The plate was coated with 100 μl/well of substrate solution (recombinant human PLC-γ/GST) at a concentration of 40 μg/ml in Tris buffered saline (TBS). The VEGFR1 activity was assayed in 100-μl assay micture containing 50 mM HEPES (pH 7.4), 30 μM ATP, 10 mM MnCl2, 0.1% BSA, 2% DMSO, and 300 ng/ml prephosphorylated recombinant human baculovirus-expressed VEGFR1 cytoplasmic domain. Compounds were screened for inhibition of the VEGFR1 kinase activity at a concentration of 1 μM. The kinase reaction was allowed to proceed at 37° C. for 15 minutes. The detection antibody, europium-labeled anti-phosphotyrosine antibody (Wallac #CR04-100), was added at 1:5000 dilution in block buffer (3% BSA in TBST). After a 1-hour incubation at 37° C., 100 μl of enhancement solution (Wallac #1244-105) was added and the plate was gently agitated. After 5 min, the fluorescence of the resulting solution was measured using the BMG Fluostar (Model # 403).

baculoviral GST-MLK3KD = molecular target: T2, baculoviral GST-MLK3KD (Homo sapiens, UniProt Q16584); assay: Mixed Lineage Kinase-3 inhibition assay (Millipore Multiscreen plate, 32P); conditions: 1 uM compound; 100 μM ATP
T2 construct: 2 μg/ml of baculoviral GST-MLK3KD; GST (N); host or cells: baculovirus expression system
Procedure: Inhibition of Mixed Lineage Kinase-3 Activity
(§1) Assays were performed using the Millipore Multiscreen plate format as described for MLK1. Briefly, each 50-μl assay mixture contained 20 mM Hepes, pH 7, 1 mM EGTA, 10 mM MgCl2, 1 mM DTT, 25 mM β-glycerophosphate, 100 μM ATP, 0.25 μCi [γ-^32P]ATP, 0.1% BSA, 500 μg/ml myelin basic protein (UBI #13-104), 2% DMSO, various concentrations of test compound, and 2 μg/ml of baculoviral GST-MLK3KD. Samples were incubated for 15 min at 37° C. The reaction was stopped by adding ice cold 50% TCA and the proteins were allowed to precipitate for 30 min at 4° C. The plates were then washed with ice cold 25% TCA. Supermix scintillation cocktail was added, and the plates were allowed to equilibrate for 1-2 hours prior to counting.

baculoviral GST-MLK2KDLZ = molecular target: T3, baculoviral GST-MLK2KDLZ (Homo sapiens, UniProt Q02779); assay: Mixed Lineage Kinase-2 inhibition assay (Millipore Multiscreen plate, 32P); conditions: 1 uM compound; 100 μM ATP
T3 construct: 3 μg/ml of baculoviral GST-MLK2KDLZ; GST (N); host or cells: baculovirus expression system
Procedure: Inhibition of Mixed Lineage Kinase-2 Activity
as §1, with “MLK1. Each” for “MLK1. Briefly, each”, “and 3” for “and 2”, “baculoviral GST-MLK2KDLZ.” for “baculoviral GST-MLK3KD.”, “15 min.” for “15 min”, “25% TCA” for “25% TCA.”

[2] = molecular target: T4, recombinant human baculovirus-expressed FGFR1 cytoplasmic domain (Homo sapiens, UniProt P11362); assay: FGFR1 kinase inhibition assay (ELISA-based, time-resolved fluorescence); conditions: 1 uM compound; 20 μM ATP
T4 construct: recombinant human baculovirus-expressed FGFR1 cytoplasmic domain; host or cells: baculovirus expression system
Procedure: Inhibition of Fibroblast Growth Factor Receptor-1 (FGFR1) Kinase Activity
The FGFR1 kinase activity was measured using an ELISA-based format in a 96-well FluoroNUNC Maxisorp plate with a time-resolved fluorescence readout as described for trkA kinase. The plate was coated with 100 μl/well of substrate solution (recombinant human PLC-γ/GST) at a concentration of 10 μg/ml in Tris buffered saline (TBS). The FDGFR1 activity was assayed in 100-μl assay micture containing 50 mM HEPES (pH 7.4), 20 μM ATP, 10 mM MnCl2, 0.1% BSA, 2% DMSO, and 15 ng/ml recombinant human baculovirus-expressed FGFR1 cytoplasmic domain (prephosphorylated prior to use). Compounds were screened for inhibition of the FGFR1 kinase activity at a conentration of 1 μM. The kinase reaction was allowed to proceed at 37° C. for 15 minutes. The detection antibody, europium-labeled anti-phosphotyrosine antibody (Wallace #CR04-100), was added at 1:5000 dilution in block buffer (3% BSA in TBST). After a 1-hour incubation at 37° C., 100 μl of enhancement solution (Wallac #1244-105) and the plate was gently agitated. After 5 min, the fluorescence of the resulting solutions measured using the BMG Fluostar (Model # 403).

T4 sequence (P11362 398-822 limits assumed): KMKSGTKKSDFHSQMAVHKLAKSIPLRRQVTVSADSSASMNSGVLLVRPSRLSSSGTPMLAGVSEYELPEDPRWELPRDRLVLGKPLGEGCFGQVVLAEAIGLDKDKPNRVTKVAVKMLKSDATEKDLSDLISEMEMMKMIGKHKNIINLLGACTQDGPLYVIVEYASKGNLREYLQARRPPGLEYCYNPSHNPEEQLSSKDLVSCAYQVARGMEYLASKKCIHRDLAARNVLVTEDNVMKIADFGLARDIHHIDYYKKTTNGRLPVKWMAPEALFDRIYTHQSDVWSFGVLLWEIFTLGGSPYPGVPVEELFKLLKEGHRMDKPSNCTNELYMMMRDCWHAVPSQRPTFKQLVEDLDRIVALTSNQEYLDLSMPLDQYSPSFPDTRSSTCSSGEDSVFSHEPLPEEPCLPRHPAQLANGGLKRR
T2 sequence (Q16584 117-379 limits assumed): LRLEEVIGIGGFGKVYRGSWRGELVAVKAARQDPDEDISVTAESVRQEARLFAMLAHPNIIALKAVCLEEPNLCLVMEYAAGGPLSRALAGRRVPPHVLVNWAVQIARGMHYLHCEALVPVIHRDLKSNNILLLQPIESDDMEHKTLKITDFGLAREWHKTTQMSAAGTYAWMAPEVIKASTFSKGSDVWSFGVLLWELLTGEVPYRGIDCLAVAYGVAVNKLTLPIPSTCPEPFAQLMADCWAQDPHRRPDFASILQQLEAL
T3 sequence (Q02779 98-440 limits assumed): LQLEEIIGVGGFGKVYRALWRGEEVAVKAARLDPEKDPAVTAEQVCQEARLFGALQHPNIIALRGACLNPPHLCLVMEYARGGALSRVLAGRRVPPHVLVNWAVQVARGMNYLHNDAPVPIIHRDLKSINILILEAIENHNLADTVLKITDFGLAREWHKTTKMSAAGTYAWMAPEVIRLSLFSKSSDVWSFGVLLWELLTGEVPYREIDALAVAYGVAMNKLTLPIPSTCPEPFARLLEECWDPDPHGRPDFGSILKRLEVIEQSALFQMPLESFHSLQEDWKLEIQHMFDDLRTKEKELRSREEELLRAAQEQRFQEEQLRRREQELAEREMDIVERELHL

SMILES | VEGFR-1 kinase % inhibition @ 1 uM [1] | MLK-3 Kinase % inhibition @ 1 uM (baculoviral GST-MLK3KD) | MLK-2 Kinase % inhibition @ 1 uM (baculoviral GST-MLK2KDLZ) | FGFR1 % inhibition @ 1 uM [2]
Cc1cc(C)c(C=C2C(=O)NN=C2c2ccoc2)[nH]1 [Compound 1] | 35% | 28% | 7% | 6%
Cc1cc(C)c(C=C2C(=O)NN=C2C2c3ccccc3Oc3ccccc32)[nH]1 [Compound 2] | 9% | −11% | −10% | 33%
Cc1cc(C)c(C=C2C(=O)NN=C2c2ccncc2)[nH]1 [Compound 3] | 22% | 12% | −1% | 29%
O=C1NN=C(c2ccoc2)C1=CC=C(c1ccccc1)c1ccccc1 [Compound 4] | 20% | −6% | −10% | 20%
CCc1c(C=C2C(=O)NN=C2c2ccoc2)[nH]c(C(=O)OCc2ccccc2)c1C [Compound 5] | 10% | −9% | 9% | −2%
Cc1c(I)[nH]c(C=C2C(=O)NN=C2c2ccoc2)c1I [Compound 6] | 14% | 3% | 6% | 20%
CCOC(=O)CCc1c(C(=O)OCC)[nH]c(C=C2C(=O)NN=C2c2ccoc2)c1CC(=O)OCC [Compound 7] | 13% | 7% | −12% | 28%
Cc1[nH]c(C=C2C(=O)NN=C2c2ccoc2)c(Br)c1Br [Compound 8] | 21% | 10% | 0% | 24%
O=C1NN=C(c2ccoc2)C1=Cc1c[nH]c2ccccc12 [Compound 9] | 51% | 27% | 15% | 17%
Cc1cc(C)c(C=C2C(=O)NN=C2c2cccnc2)[nH]1 [Compound 10] | 41% | 44% | −9% | 14%
COc1ccc2[nH]cc(C=C3C(=O)NN=C3c3ccoc3)c2c1 [Compound 11] | 23% | 31% | 7% | 24%
O=C1NN=C(c2ccoc2)C1=Cc1ccc[nH]1 [Compound 12] | 29% | 29% | −7% | 39%
Cc1nc(C)c(C2=NNC(=O)C2=Cc2c[nH]c3ccccc23)s1 [Compound 13] | 39% | 17% | −17% | 30%
Cc1cc(C)c(C=C2C(=O)NN=C2c2sc(C)nc2C)[nH]1 [Compound 14] | 8% | 14% | −18% | 22%
O=C1NN=C(c2ccoc2)C1=Cc1ncc[nH]1 [Compound 15] | 12% | −17% | −12% | 10%
COC(=O)c1ccc2[nH]cc(C=C3C(=O)NN=C3c3ccoc3)c2c1 [Compound 16] | 18% | 12% | 7% | 1%
O=C1NN=C(c2ccoc2)C1=Cc1c[nH]c2ccc(Cl)cc12 [Compound 17] | 17% | 19% | −8% | 13%
O=C1NN=C(c2ccoc2)C1=Cc1c[nH]c2cccc(OCc3ccccc3)c12 [Compound 18] | 9% | 47% | −2% | 22%
O=C1NN=C(c2ccoc2)C1=Cc1c[nH]c2ccc(F)cc12 [Compound 19] | 30% | 11% | −5% | 23%
Cn1cc(C=C2C(=O)NN=C2c2ccoc2)c2ccccc21 [Compound 20] | 45% | 57% | −3% | 27%
O=C1NN=C(c2ccoc2)C1=Cc1c[nH]c2ccc(OCc3ccccc3)cc12 [Compound 21] | 0% | 24% | −13% | 15%
Cc1cccc2c(C=C3C(=O)NN=C3c3ccoc3)c[nH]c12 [Compound 22] | 23% | 24% | −13% | 22%
Cc1cc(C)c(C=C2C(=O)NN=C2c2ccn(C)c2)[nH]1 [Compound 23] | 2% | 69% | −6% | 31%
Cn1ccc(C2=NNC(=O)C2=Cc2c[nH]c3ccccc23)c1 [Compound 24] | 39% | 38% | 4% | 39%
